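Results reflect a 48-hour exposure of cells in 96-well plates to compound at five concentrations. GI50 is the concentration that inhibits growth by half. TGI: total growth inhibition.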
Experiments:
Experiment in all cases: DTP human tumour cell line panel, 48 h
DU-145 prostate = tested on: DU-145 prostate
SR leukemia = tested on: SR leukemia
OVCAR-3 ovarian = tested on: OVCAR-3 ovarian
UACC-257 melanoma = tested on: UACC-257 melanoma
CCRF-CEM leukemia = tested on: CCRF-CEM leukemia
HOP-62 NSCLC = tested on: HOP-62 NSCLC
NCI-H460 lung = tested on: NCI-H460 lung
HOP-92 NSCLC = tested on: HOP-92 NSCLC
SNB-19 CNS = tested on: SNB-19 CNS
UO-31 renal = tested on: UO-31 renal
MDA-MB-435 = tested on: MDA-MB-435
MOLT-4 leukemia = tested on: MOLT-4 leukemia
HT29 colon = tested on: HT29 colon
NCI-H23 lung = tested on: NCI-H23 lung
HS 578T breast = tested on: HS 578T breast
A498 renal = tested on: A498 renal
SN12C renal = tested on: SN12C renal
HCC-2998 colon = tested on: HCC-2998 colon
CAKI-1 renal = tested on: CAKI-1 renal
NCI-H226 lung = tested on: NCI-H226 lung
NCI/ADR-RES ovarian = tested on: NCI/ADR-RES ovarian
UACC-62 melanoma = tested on: UACC-62 melanoma
786-0 renal = tested on: 786-0 renal
M14 melanoma = tested on: M14 melanoma
IGROV1 ovarian = tested on: IGROV1 ovarian
T-47D breast = tested on: T-47D breast
COLO 205 colon = tested on: COLO 205 colon

C[C@]12CC[C@@H]3c4ccc(O)cc4CC[C@H]3[C@@H]1CC[C@@H]2NS(=O)(=O)c1ccc(Br)cc1
GI50 (DU-145 prostate): 3.91 µM | TGI (DU-145 prostate): 12.7 µM | GI50 (SR leukemia): 3.37 µM | TGI (SR leukemia): 39.3 µM | GI50 (OVCAR-3 ovarian): 2.18 µM | TGI (OVCAR-3 ovarian): 4.43 µM | GI50 (UACC-257 melanoma): 2.56 µM | TGI (UACC-257 melanoma): 8.12 µM | GI50 (CCRF-CEM leukemia): 3.14 µM | TGI (CCRF-CEM leukemia): > 100 µM | GI50 (HOP-62 NSCLC): 2.77 µM | TGI (HOP-62 NSCLC): 6.14 µM | GI50 (NCI-H460 lung): 2.15 µM | TGI (NCI-H460 lung): 4.81 µM | GI50 (HOP-92 NSCLC): 1.76 µM | TGI (HOP-92 NSCLC): 4.93 µM | GI50 (SNB-19 CNS): 3.94 µM | TGI (SNB-19 CNS): 16.9 µM | GI50 (UO-31 renal): 1.76 µM | TGI (UO-31 renal): 4.35 µM | GI50 (MDA-MB-435): 1.84 µM | TGI (MDA-MB-435): 3.97 µM | GI50 (MOLT-4 leukemia): 3.26 µM | TGI (MOLT-4 leukemia): 28.7 µM | GI50 (HT29 colon): 2.31 µM | TGI (HT29 colon): 4.63 µM | GI50 (NCI-H23 lung): 3.44 µM | TGI (NCI-H23 lung): 15.5 µM | GI50 (HS 578T breast): 2.05 µM | TGI (HS 578T breast): 6.15 µM | GI50 (A498 renal): 1.61 µM | TGI (A498 renal): 3.7 µM | GI50 (SN12C renal): 1.79 µM | TGI (SN12C renal): 3.5 µM | GI50 (HCC-2998 colon): 3.21 µM | TGI (HCC-2998 colon): 10.5 µM | GI50 (CAKI-1 renal): 3.12 µM | TGI (CAKI-1 renal): 10.2 µM | GI50 (NCI-H226 lung): 2.04 µM | TGI (NCI-H226 lung): 4.17 µM | GI50 (NCI/ADR-RES ovarian): 2.81 µM | TGI (NCI/ADR-RES ovarian): 8.79 µM | GI50 (UACC-62 melanoma): 1.76 µM | TGI (UACC-62 melanoma): 3.68 µM | GI50 (786-0 renal): 3.07 µM | TGI (786-0 renal): 8.86 µM | GI50 (M14 melanoma): 2.14 µM | TGI (M14 melanoma): 4.66 µM | GI50 (IGROV1 ovarian): 3.85 µM | TGI (IGROV1 ovarian): 12.1 µM | GI50 (T-47D breast): 3.35 µM | TGI (T-47D breast): 10.3 µM | GI50 (COLO 205 colon): 2.12 µM | TGI (COLO 205 colon): 4.04 µM

— PubChem BioAssay (NCI)
